Assay results: patent US10519098B2, “Aromatic derivatives as anti-malarial” (Council of Scientific & Industrial Research, priority 2014, dated 2019)
Like-named read-outs stand apart in the source and are kept apart here.

How the values were obtained:
[1] = test system: Chloroquine-sensitive (3D7) strain of P. falciparum; test: Malaria SYBR Green I-based fluorescence (MSF) assay, 3D7 strain; format: cell-based; details: Plasmodium falciparum
Protocol: (§1) The stock (5 mg/mL or 10 mM) solutions of extracts were prepared in DMSO and required dilutions were made in culture medium.
(§2) Two-fold serial dilutions of test samples were made in 96 well plates and incubated with 1.0% parasitized cell suspension containing 0.8% parasitaemia (Asynchronous culture with more than 80% ring stages). The plates were incubated at 37° C. in CO2 incubator in an atmosphere of 5% CO2 and air mixture. 72 hours later 100 μL of lysis buffer containing 2× concentration of SYBR Green-I (Invitrogen) was added to each well and incubated for one hour at 37° C. The plates were examined at 485±20 nm of excitation and 530±20 nm of emission for relative fluorescence units (RFUs) per well using the fluorescence plate reader (FLX800, BIOTEK). IC50 values were obtained by Logit regression analysis of dose response curves (Singh et al. 2011).

[2] = test system: Chloroquine-resistant (K1) strain of P. falciparum; test: Malaria SYBR Green I-based fluorescence (MSF) assay, K1 strain; format: cell-based; details: Plasmodium falciparum
Protocol: as §1, §2

in vitro = details: monkey
Protocol: The cells were incubated with test sample dilutions for 72 h and MTT was used as reagent for detection of cytotoxicity. Podophyllotoxin (SIGMA) was used as the standard reference drug.

[3] = P. falciparum 3D7, 72 hours incubation, read-out: IC50 against 3D7
[4] = P. falciparum K1, 72 hours incubation, read-out: IC50 against K1
[5] = 3D7, range given for listed compounds, read-out: IC50 values against 3D7 culture
[6] = K1, range given for listed compounds, read-out: IC50 values against K1 culture

| Structure (SMILES) | IC50 [1, 3] [µM] | melting point [°C] | IC50 [2, 4] [µM] | IC50 [1, 5] [µM] | IC50 [2, 6] [µM] | IC50 ([1]; 3D7, 72 h, read-out: IC50 against 3D7) [µM] | IC50 ([2]; K1, 72 h, read-out: IC50 against K1) [µM] | CC50 at 72 h (in vitro) [µM] |
| --- | --- | --- | --- | --- | --- | --- | --- | --- |
| CCN(CC)CCCC(C)Nc1ccnc2cc(Cl)ccc12 (centres unmarked) [CQ, Chloroquine, reference compound] | – | – | – | – | – | 0.005 | 0.25 ± 0.02 | – |
| COc1cccc([C@@H](COC(=O)/C=C/c2ccccc2)OC(=O)/C=C/c2ccccc2)c1 [Compound 15, (S)-1-(3-methoxyphenyl)ethane-1,2-diyl (2E,2′E)-bis(3-phenylacrylate)] | > 5 | 67 to 69 | – | – | – | – | – | 61.9 |
| COc1cccc([C@H](COC(=O)/C=C/c2ccccc2)OC(=O)/C=C/c2ccccc2)c1 [Compound 16, (R)-1-(3-methoxyphenyl)ethane-1,2-diyl (2E,2′E)-bis(3-phenylacrylate)] | > 5 | 67 to 69 | – | – | – | – | – | 22.3 |
| COc1ccc([C@@H](CNC(=O)/C=C/c2ccccc2)OC(=O)/C=C/c2ccccc2)cc1 [Compound 17, (S)-2-cinnamamido-1-(4-methoxyphenyl)ethyl cinnamate] | > 5 | 137 to 139 | – | – | – | – | – | – |
| COc1ccc([C@H](CNC(=O)/C=C/c2ccccc2)OC(=O)/C=C/c2ccccc2)cc1 [Compound 18, (R)-2-cinnamamido-1-(4-methoxyphenyl)ethyl cinnamate] | > 5 | 138 to 140 | – | – | – | – | – | – |
| COc1ccc([C@@H](COC(=O)/C=C/c2ccccc2)OC(=O)/C=C/c2ccccc2)cc1 [Compound 19, (S)-1-(4-methoxyphenyl)ethane-1,2-diyl (2E,2′E)-bis(3-phenylacrylate)] | > 5 | 93 to 96 | – | – | – | – | – | 33.5 |
| COc1ccc([C@H](COC(=O)/C=C/c2ccccc2)OC(=O)/C=C/c2ccccc2)cc1 [Compound 20, (R)-1-(4-methoxyphenyl)ethane-1,2-diyl (2E,2′E)-bis(3-phenylacrylate)] | > 5 | 76 to 79 | – | – | – | – | – | 23.3 |
| COc1cccc([C@@H](CNC(=O)/C=C/c2ccccc2)OC(=O)/C=C/c2ccccc2)c1OC [Compound 21, (S)-2-cinnamamido-1-(2,3-dimethoxyphenyl)ethyl cinnamate] | > 5 | 105 to 108 | – | – | – | – | – | > 200 |
| COc1cccc([C@@H](COC(=O)/C=C/c2ccccc2)OC(=O)/C=C/c2ccccc2)c1OC [Compound 23, (S)-1-(2,3-dimethoxyphenyl)ethane-1,2-diyl (2E,2′E)-bis(3-phenyl acrylate)] | > 5 | – | – | – | – | – | – | 28.4 |
| COc1cccc([C@H](COC(=O)/C=C/c2ccccc2)OC(=O)/C=C/c2ccccc2)c1OC [Compound 24, (R)-1-(2,3-dimethoxyphenyl)ethane-1,2-diyl(2E,2′E)-bis(3-phenyl acrylate)] | > 5 | – | – | – | – | – | – | 82.7 |
| O=C(/C=C/c1ccccc1)OC[C@@H](OC(=O)/C=C/c1ccccc1)c1ccccc1 [Compound 27, (S)-1-phenylethane-1,2-diyl (2E,2′E)-bis(3-phenylacrylate)] | > 5 | 131 to 133 | – | – | – | – | – | 39.1 |
| O=C(/C=C/c1ccccc1)OC[C@H](OC(=O)/C=C/c1ccccc1)c1ccccc1 [Compound 28, (R)-1-phenylethane-1,2-diyl (2E,2′E)-bis(3-phenylacrylate)] | > 5 | 132 to 134 | – | – | – | – | – | 30.3 |
| Cc1ccc([C@H](COC(=O)/C=C/c2ccccc2)OC(=O)/C=C/c2ccccc2)cc1 [Compound 32, (R)-1-(p-tolyl) ethane-1,2-diyl (2E,2′E)-bis(3-phenylacrylate)] | > 5 | 103 to 105 | – | – | – | – | – | > 200 |
| O=C(/C=C/c1ccccc1)NC[C@H](OC(=O)/C=C/c1ccccc1)c1ccc2c(c1)OCO2 [Compound 34, (R)-1-(benzo[d][1,3]dioxol-5-yl)-2-cinnamamidoethyl cinnamate] | > 5 | 200 to 202 | – | – | – | – | – | > 200 |
| O=C(/C=C/c1ccccc1)OC[C@@H](OC(=O)/C=C/c1ccccc1)c1cccc2c1OCO2 [Compound 37, (S)-1-(benzo[d][1,3]dioxol-4-yl)ethane-1,2-diyl(2E,2′E)-bis(3-phenyl acrylate)] | > 10 | – | > 10 | – | – | – | – | > 200 |
| CCCC(=O)NC[C@@H](OC(=O)CCC)c1ccc(OC)c(OC)c1 [Compound 45, (S)-2-butyramido-1-(3,4-dimethoxyphenyl)ethyl butyrate] | > 10 | – | > 10 | – | – | – | – | 51.8 |
| COc1ccc([C@@H](CNC(=O)/C=C/c2ccccc2O[Si](C)(C)C(C)(C)C)OC(=O)/C=C/c2ccccc2O[Si](C)(C)C(C)(C)C)cc1OC [Compound 46, (S)-2-((E)-3-(2-((tert-butyldimethylsilyl)oxy)phenyl)acrylamido)-1-(3,4-dimethoxyphenyl)ethyl (E)-3-(2-((tert-butyldimethylsilyl)oxy)phenyl)acrylate] | 8.49 | – | 4.56 | – | – | – | – | 58.9 |
| COc1ccc([C@@H](CNC(=O)/C=C/c2cccc(O[Si](C)(C)C(C)(C)C)c2)OC(=O)/C=C/c2cccc(O[Si](C)(C)C(C)(C)C)c2)cc1OC [Compound 47, (S)-2-((E)-3-(3-((tert-butyldimethylsilyl)oxy)phenyl)acrylamido)-1-(3,4-dimethoxyphenyl)ethyl (E)-3-(3-((tert-butyldimethylsilyl)oxy)phenyl)acrylate] | > 10 | – | 7.52 | – | – | – | – | 52.6 |

Continued, in another order:

| IC50 [1, 3] [µM] | melting point [°C] | IC50 [2, 4] [µM] | IC50 [1, 5] [µM] | IC50 [2, 6] [µM] | Structure (SMILES) | IC50 ([1]; 3D7, 72 h, read-out: IC50 against 3D7) [µM] | IC50 ([2]; K1, 72 h, read-out: IC50 against K1) [µM] | CC50 at 72 h (in vitro) [µM] |
| --- | --- | --- | --- | --- | --- | --- | --- | --- |
| > 5 | 123 to 125 | – | – | – | COc1ccc([C@H](CNC(=O)/C=C/c2ccccc2)OC(=O)/C=C/c2ccccc2)cc1OC [Compound 2, (R)-2-cinnamamido-1-(3,4-dimethoxyphenyl)ethyl cinnamate] | – | – | 66.7 |
| > 5 | – | – | – | – | COc1ccc([C@@H](COC(=O)/C=C/c2ccccc2)OC(=O)/C=C/c2ccccc2)cc1OC [Compound 3, (S)-1-(3,4-dimethoxyphenyl)ethane-1,2-diyl(2E,2′E)-bis(3-phenyl acrylate)] | – | – | 24.3 |
| > 5 | – | > 5 | – | – | COc1ccc([C@H](COC(=O)/C=C/c2ccccc2)OC(=O)/C=C/c2ccccc2)cc1OC [Compound 4, (R)-1-(3,4-dimethoxyphenyl)ethane-1,2-diyl (2E,2′E)-bis(3-phenyl acrylate)] | – | – | 5.87 |
| > 5 | 126 to 127 | – | – | – | COc1cc([C@H](CNC(=O)/C=C/c2ccccc2)OC(=O)/C=C/c2ccccc2)cc(OC)c1OC [Compound 6, (R)-2-cinnamamido-1-(3,4,5-trimethoxyphenyl)ethyl cinnamate] | – | – | 5.08 |
| 3.37 | – | 3.47 | 2 to 7 | 1.5 to 4 | COc1cc([C@@H](COC(=O)/C=C/c2ccccc2)OC(=O)/C=C/c2ccccc2)cc(OC)c1OC [Compound 7, (S)-1-(3,4,5-trimethoxyphenyl)ethane-1,2-diyl(2E,2′E)-bis(3-phenyl acrylate)] | – | – | 6.44 |
| > 5 | – | – | – | – | COc1cc([C@H](COC(=O)/C=C/c2ccccc2)OC(=O)/C=C/c2ccccc2)cc(OC)c1OC [Compound 8, (R)-1-(3,4,5-trimethoxyphenyl)ethane-1,2-diyl (2E,2′E)-bis(3-phenyl acrylate)] | – | – | 122 |
| > 5 | 112 to 114 | – | – | – | COc1ccccc1[C@H](CNC(=O)/C=C/c1ccccc1)OC(=O)/C=C/c1ccccc1 [Compound 10, (R)-2-cinnamamido-1-(2-methoxyphenyl)ethyl cinnamate] | – | – | 117 |
| 3.8 | – | 3.23 | 2 to 7 | 1.5 to 4 | COc1ccccc1[C@@H](COC(=O)/C=C/c1ccccc1)OC(=O)/C=C/c1ccccc1 [Compound 11, (S)-1-(2-methoxyphenyl)ethane-1,2-diyl (2E,2′E)-bis(3-phenylacrylate)] | – | – | 14 |
| > 5 | – | – | – | – | COc1ccccc1[C@H](COC(=O)/C=C/c1ccccc1)OC(=O)/C=C/c1ccccc1 [Compound 12, (R)-1-(2-methoxyphenyl)ethane-1,2-diyl (2E,2′E)-bis(3-phenylacrylate)] | – | – | 51.7 |
| > 5 | 139 to 141 | – | – | – | COc1cccc([C@@H](CNC(=O)/C=C/c2ccccc2)OC(=O)/C=C/c2ccccc2)c1 [Compound 13, (S)-2-cinnamamido-1-(3-methoxyphenyl)ethyl cinnamate] | – | – | 148 |
| > 5 | 138 to 140 | – | – | – | COc1cccc([C@H](CNC(=O)/C=C/c2ccccc2)OC(=O)/C=C/c2ccccc2)c1 [Compound 14, (R)-2-cinnamamido-1-(3-methoxyphenyl)ethyl cinnamate] | – | – | 62.7 |
| 7.42 | – | > 10 | – | – | O=C(/C=C/c1ccccc1)OC[C@H](OC(=O)/C=C/c1ccccc1)c1cccc2c1OCO2 [Compound 38, (R)-1-(benzo[d][1,3]dioxol-4-yl)ethane-1,2-diyl(2E,2′E)-bis(3-phenyl acrylate)] | – | – | > 200 |
